Test systems include UO-31 renal; NCI-H226 lung; NCI-H23 lung; SK-MEL-28 melanoma; IGROV1 ovarian; RPMI-8226 leukemia; HOP-92 NSCLC; RXF 393 renal; OVCAR-8 ovarian; HCC-2998 colon.
Holding throughout (assay): growth of human tumour cells (NCI), 48 h

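Grown in 96-well plates, cells were treated for 48 hours with each compound at five concentrations. Insufficient inhibition: endpoint recorded as highest concentration tested. At the GI50, growth is halved. Definition used: TGI = concentration required for complete inhibition of growth.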

Regarding `O=C(CC1SC(=Nc2ccccc2Cl)NC1=O)Nc1ccc(Cl)cc1Cl` (centres undefined), the TGI in the test on UO-31 renal, with NCI-H226 lung, in the test on NCI-H23 lung, in the test on SK-MEL-28 melanoma, with IGROV1 ovarian and with RPMI-8226 leukemia was above 100 µM each time. In addition, the TGI in the test on HOP-92 NSCLC, in the test with RXF 393 renal, with OVCAR-8 ovarian and in the test on HCC-2998 colon was above 100 µM throughout.
Turning to `CCN(CC)CCCCCCNc1cc(OC)cc2cccnc12`, the GI50 was 11.5 µM with UO-31 renal; 21.3 µM in the test on NCI-H226 lung; 13.3 µM in the test on NCI-H23 lung; 2.09 µM with SK-MEL-28 melanoma; 2.27 µM in the test on IGROV1 ovarian; 2.38 µM with RPMI-8226 leukemia. Moreover, the GI50 was 12.5 µM with HOP-92 NSCLC, 4.26 µM in the test with RXF 393 renal, 3.04 µM in the test on OVCAR-8 ovarian and 2.32 µM with HCC-2998 colon. The TGI in the test with UO-31 renal turned out to be 29.5 µM; with NCI-H226 lung, 43.2 µM; with NCI-H23 lung it was 30.3 µM; in the test with SK-MEL-28 melanoma, 4.53 µM; in the test with IGROV1 ovarian it was 4.86 µM; with RPMI-8226 leukemia, 5.45 µM. Besides, the TGI was found to be 27.6 µM in the test with HOP-92 NSCLC, 15.7 µM in the test on RXF 393 renal, 8.99 µM in the test on OVCAR-8 ovarian and 5 µM in the test on HCC-2998 colon.
For the molecule `CCCCCCNC(=O)Oc1ccc(/C(=C(\C)c2ccc(Cl)cc2)c2ccc(OCCN3CCCCC3)cc2)cc1`, the GI50 was 2.14 µM with UO-31 renal; 5.31 µM with NCI-H226 lung; 3.89 µM in the test on NCI-H23 lung; 4.34 µM with SK-MEL-28 melanoma; 4.38 µM in the test on IGROV1 ovarian; 1.84 µM with RPMI-8226 leukemia. Further, the GI50 in the test on HOP-92 NSCLC was 3.55 µM; in the test on RXF 393 renal it was 3.3 µM; with OVCAR-8 ovarian, 5.53 µM; in the test on HCC-2998 colon, 4.39 µM. The TGI came out at 6.57 µM in the test on UO-31 renal; 11.8 µM in the test with NCI-H226 lung; 9.61 µM with NCI-H23 lung; 9.34 µM in the test on SK-MEL-28 melanoma; 10.5 µM with IGROV1 ovarian; 9.68 µM in the test on RPMI-8226 leukemia. Besides, the TGI was 7.88 µM in the test on HOP-92 NSCLC, 7.55 µM with RXF 393 renal, 11.7 µM with OVCAR-8 ovarian and 9.17 µM in the test on HCC-2998 colon.
With `CCC1(O)C(=O)OCc2c1cc1n(c2=O)Cc2cc3c(NC(=O)CN)cccc3nc2-1` (centres undefined), the GI50 with UO-31 renal was 0.595 µM; with NCI-H226 lung, 0.385 µM; in the test with NCI-H23 lung, 0.27 µM; with IGROV1 ovarian it was 3.9 µM; in the test on RPMI-8226 leukemia, 1.69 µM; in the test with HOP-92 NSCLC, 2.47 µM. Moreover, the values for the GI50 in the test with RXF 393 renal, in the test with OVCAR-8 ovarian and with HCC-2998 colon were 0.515 µM, 0.557 µM and 5.07 µM, respectively. The TGI in the test on UO-31 renal is 4.82 µM; in the test with NCI-H226 lung, 4.29 µM; in the test with NCI-H23 lung it was 2.58 µM; with SK-MEL-28 melanoma it was above 100 µM; with IGROV1 ovarian, 73.4 µM; in the test on RPMI-8226 leukemia it was 40.3 µM. Besides, the TGI came to 24.1 µM in the test with HOP-92 NSCLC, 3.91 µM in the test on RXF 393 renal, 30.2 µM in the test on OVCAR-8 ovarian and 25.6 µM in the test on HCC-2998 colon.
Consider `Oc1cccc2ccc(N/N=C/c3cc(CN4CCOCC4)c(O)c4ncccc34)nc12`, for which the GI50 was 0.0124 µM with UO-31 renal; 0.533 µM with NCI-H226 lung; 0.0327 µM in the test on NCI-H23 lung; 0.0634 µM with SK-MEL-28 melanoma; 0.066 µM in the test with IGROV1 ovarian; 0.0154 µM in the test on RPMI-8226 leukemia. Moreover, the GI50 with HOP-92 NSCLC was 0.0212 µM; in the test with RXF 393 renal, 0.048 µM; in the test with OVCAR-8 ovarian it was 0.0207 µM; in the test with HCC-2998 colon, 0.0368 µM. The TGI in the test with UO-31 renal amounted to 1.24 µM; with NCI-H226 lung, 5.57 µM; with NCI-H23 lung, 1.73 µM; with SK-MEL-28 melanoma, 6.19 µM; in the test on IGROV1 ovarian, 4.94 µM; in the test on RPMI-8226 leukemia, 10.5 µM. Also, the TGI came out at 0.0678 µM in the test on HOP-92 NSCLC, 1.66 µM with RXF 393 renal, 2.09 µM in the test on OVCAR-8 ovarian and 1.93 µM with HCC-2998 colon.
Turning to `COc1ccc(/C=C(\C#N)n2nnc3c(F)cccc32)cc1`, the GI50 with UO-31 renal is 0.573 µM; with NCI-H226 lung, 1.98 µM; in the test on NCI-H23 lung it was 0.508 µM; with SK-MEL-28 melanoma it was 1.28 µM; in the test on IGROV1 ovarian, 0.388 µM; in the test with RPMI-8226 leukemia it was 0.409 µM. Besides, the GI50 in the test on HOP-92 NSCLC was 0.293 µM; in the test on RXF 393 renal, 0.182 µM; in the test with OVCAR-8 ovarian, 0.532 µM; in the test on HCC-2998 colon, 1.16 µM. Besides, the TGI in the test with UO-31 renal is above 100 µM; in the test on NCI-H226 lung it was above 100 µM; with NCI-H23 lung, 12.5 µM; with SK-MEL-28 melanoma, above 100 µM; in the test on IGROV1 ovarian it was above 36.9 µM; with RPMI-8226 leukemia, above 100 µM. Also, the TGI was 42.9 µM in the test on HOP-92 NSCLC, 0.572 µM in the test with RXF 393 renal, above 34.5 µM in the test on OVCAR-8 ovarian and above 47 µM in the test on HCC-2998 colon.
Regarding `N#Cc1ccc(C=NC23CC4CC(CC(C4)C2)C3)cc1`, the TGI with UO-31 renal, with NCI-H226 lung, in the test with NCI-H23 lung, in the test with SK-MEL-28 melanoma, with IGROV1 ovarian and in the test on RPMI-8226 leukemia was above 100 µM in each case. Besides, the TGI in the test on HOP-92 NSCLC, in the test with RXF 393 renal, with OVCAR-8 ovarian and in the test with HCC-2998 colon was above 100 µM in each case.
Turning to `Cc1cc(C#Cc2ccc(C(C)(C)C)cc2)ccc1-n1c(/C=C/c2ccc(O)cc2O)nc2ccccc2c1=O`, the GI50 was 2.63 µM in the test on UO-31 renal; 2.17 µM with NCI-H226 lung; 2.42 µM in the test on NCI-H23 lung; 2.42 µM with SK-MEL-28 melanoma; 7.48 µM in the test on IGROV1 ovarian; 3.1 µM in the test on RPMI-8226 leukemia. In addition, the GI50 in the test on HOP-92 NSCLC is 2.82 µM; in the test on RXF 393 renal, 1.88 µM; with OVCAR-8 ovarian, 3.55 µM; in the test with HCC-2998 colon it was 1.93 µM. The TGI is 15.5 µM in the test with UO-31 renal; 8.25 µM in the test with NCI-H226 lung; 6.8 µM in the test on NCI-H23 lung; 7.27 µM with SK-MEL-28 melanoma; 26.8 µM in the test on IGROV1 ovarian; 26.9 µM in the test on RPMI-8226 leukemia. Moreover, the TGI in the test with HOP-92 NSCLC amounted to 8.31 µM; in the test with RXF 393 renal, 4.46 µM; in the test with OVCAR-8 ovarian it was 12.5 µM; in the test with HCC-2998 colon, 3.85 µM.
For the molecule `O=C1Nc2ccccc2N=CC1NC(=O)C(c1ccccc1)c1ccccc1` (centres undefined), the TGI in the test with UO-31 renal, with NCI-H226 lung, in the test with NCI-H23 lung, in the test on SK-MEL-28 melanoma, in the test with IGROV1 ovarian and in the test on RPMI-8226 leukemia was above 100 µM throughout. The TGI in the test with HOP-92 NSCLC, with RXF 393 renal, in the test on OVCAR-8 ovarian and with HCC-2998 colon was above 100 µM in each case.

For the origin of these results see PubChem BioAssay (NCI).
